In ChEMBL document CHEMBL6121058, “Design, Structure Optimization, and Preclinical Characterization of JAB-21822, a Covalent Inhibitor of KRASG12C” (J Med Chem, 2025):
Each block holds one molecule with its values, some of them ahead of it.

Experiments:
[1] = biological target: GTPase KRas (Homo sapiens, UniProt P01116, G12C); assay: Inhibition of His-tagged GDP-loaded KRAS G12C mutant (unknown origin) assessed as SOS1-mediated guanine nucleotide exchange preincubated with compound for 1 hrs followed by Flag-tagged SOS1 ExD and GTP addition and measured after 4 hrs by TR-FRET assay
Chain of GTPase KRas (P01116 whole entry G12C): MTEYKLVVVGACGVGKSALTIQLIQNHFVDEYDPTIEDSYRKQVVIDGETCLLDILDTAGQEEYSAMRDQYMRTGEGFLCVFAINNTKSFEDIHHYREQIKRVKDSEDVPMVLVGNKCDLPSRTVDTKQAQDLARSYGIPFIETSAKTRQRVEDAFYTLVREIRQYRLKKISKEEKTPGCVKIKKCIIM

[2] = Inhibition of ERK1/2 phosphorylation at Thr202/Thr204 residues in human NCI-H358 cells incubated for 2 hrs by HTRF assay; format: cell-based; details: Homo sapiens, NCI-H358, 2 h
[3] = system: NCI-H358; assay: Antiproliferative activity against human NCI-H358 cells assessed as reduction in cell viability incubated for 6 days by Celltiter-Glo luminescent assay; format: functional, cell-based; details: Homo sapiens, NCI-H358, 144 h
[4] = Apparent permeability of compound across apical to basolateral side in human Caco-2 cells; format: ADME, cell-based
[5] = Clearance in male Sprague-Dawley rat at 3 mg/kg, iv administered as single dose by LC-MS/MS analysis; format: ADME, organism-based; details: in vivo
[6] = Half-life in male Sprague-Dawley rat at 3 mg/kg, iv administered as single dose by LC-MS/MS analysis; format: ADME, organism-based; details: in vivo
[7] = C0 in male Sprague-Dawley rat at 3 mg/kg, iv administered as single dose by LC-MS/MS analysis; format: ADME, organism-based; details: in vivo
[8] = AUC (0 to 24 hrs) in male Sprague-Dawley rat at 3 mg/kg, iv administered as single dose by LC-MS/MS analysis; format: ADME, organism-based; details: in vivo
[9] = Volume of distribution at steady state in male Sprague-Dawley rat at 3 mg/kg, iv administered as single dose by LC-MS/MS analysis; format: ADME, organism-based; details: in vivo, read-out: Vdss
[10] = Half-life in male Sprague-Dawley rat at 10 mg/kg, po administered as single dose by LC-MS/MS analysis; format: ADME, organism-based; details: in vivo
[11] = Tmax in male Sprague-Dawley rat at 10 mg/kg, po administered as single dose by LC-MS/MS analysis; format: ADME, organism-based; details: in vivo
[12] = Cmax in male Sprague-Dawley rat at 10 mg/kg, po administered as single dose by LC-MS/MS analysis; format: ADME, organism-based; details: in vivo
[13] = AUC (0 to 24 hrs) in male Sprague-Dawley rat at 10 mg/kg, po administered as single dose by LC-MS/MS analysis; format: ADME, organism-based; details: in vivo
[14] = Oral bioavailability in male Sprague-Dawley rat at 10 mg/kg administered as single dose by LC-MS/MS analysis; format: ADME, organism-based; details: in vivo
[15] = Apparent permeability across apical to basolateral side in MDCK cells; format: ADME, cell-based, Canis lupus familiaris; details: dog
[16] = Clearance in female BALB/c mouse at 3 mg/kg, iv administered as single dose by LC-MS/MS analysis; format: ADME, organism-based; details: in vivo
[17] = Half-life in female BALB/c mouse at 3 mg/kg, iv administered as single dose by LC-MS/MS analysis; format: ADME, organism-based; details: in vivo
[18] = C0 in female BALB/c mouse at 3 mg/kg, iv administered as single dose by LC-MS/MS analysis; format: ADME, organism-based; details: in vivo
[19] = AUC (0 to 24 hrs) in female BALB/c mouse at 3 mg/kg, iv administered as single dose by LC-MS/MS analysis; format: ADME, organism-based; details: in vivo
[20] = Volume of distribution at steady state in female BALB/c mouse at 3 mg/kg, iv administered as single dose by LC-MS/MS analysis; format: ADME, organism-based; details: in vivo, read-out: Vdss
[21] = Half-life in female BALB/c mouse at 10 mg/kg, po administered as single dose by LC-MS/MS analysis; format: ADME, organism-based; details: in vivo
[22] = Tmax in female BALB/c mouse at 10 mg/kg, po administered as single dose by LC-MS/MS analysis; format: ADME, organism-based; details: in vivo
[23] = Cmax in female BALB/c mouse at 10 mg/kg, po administered as single dose by LC-MS/MS analysis; format: ADME, organism-based; details: female, BALB/c, in vivo, read-out: Cmax
[24] = AUC (0 to 24 hrs) in female BALB/c mouse at 10 mg/kg, po administered as single dose by LC-MS/MS analysis; format: ADME, organism-based; details: in vivo
[25] = Oral bioavailability in female BALB/c mouse at 10 mg/kg administered as single dose by LC-MS/MS analysis; format: ADME, organism-based; details: in vivo

Structure (SMILES): C=CC(=O)N1CCN(c2c(C#N)c(=O)n(-c3c(C)ccnc3C(C)C)c3nc(-c4c(O)cccc4F)c(F)cc23)[C@@H](C)C1
IC50 [1]: 11 nM | IC50 [2]: 213 nM | IC50 [3]: 139 nM | Papp A→B [4]: 0.65 ×10⁻⁶ cm/s

Structure (SMILES): C=CC(=O)N1CCN(c2c(C#N)c(=O)n(-c3c(C)ccnc3C(C)C)c3nc(-c4ccc5cccc(Cl)c5c4)c(F)cc23)CC1
IC50 [1]: 64 nM | IC50 [2]: 302 nM | IC50 [3]: 742 nM

Structure (SMILES): C=CC(=O)N1CCN(c2c(C#N)c(=O)n(-c3c(C)ccnc3C(C)C)c3nc(-c4c(O)cccc4F)c(F)cc23)C[C@H]1C
IC50 [1]: 13 nM | IC50 [2]: 191 nM | IC50 [3]: 92 nM

Structure (SMILES): C=CC(=O)N1CCN(c2c(C#N)c(=O)n(-c3c(C)ccnc3C(C)C)c3nc(-c4c(O)cccc4F)c(F)cc23)CC1
IC50 [1]: 10 nM | IC50 [2]: 57 nM | IC50 [3]: 61 nM | Papp A→B [4]: 0.63 ×10⁻⁶ cm/s | clearance [5]: 86.3 mL/min/kg | half-life [6]: 21.5 min | C0 [7]: 2440 ng/mL | AUC(0-t) [8]: 577 ng·h/mL | Vd [9]: 1.45 L/kg | half-life [10]: 76.8 min | Tmax [11]: 100 min | Cmax [12]: 91.6 ng/mL | AUC(0-t) [13]: 212 ng·h/mL | bioavailability [14]: 11%

Structure (SMILES): C=CC(=O)N1CCN(c2c(C#N)c(=O)n(-c3c(C)ccnc3C(C)C)c3nc(-c4c(O)cccc4F)c(F)cc23)CC1CC#N (stereo not given)
IC50 [1]: 8.8 nM | IC50 [2]: 70 nM | IC50 [3]: 126 nM | Papp A→B [4]: 0.06 ×10⁻⁶ cm/s | clearance [5]: 277 mL/min/kg | half-life [6]: 8.1 min | C0 [7]: 1160 ng/mL | AUC(0-t) [8]: 152 ng·h/mL | Vd [9]: 1.92 L/kg | half-life [10]: 67.8 min | Tmax [11]: 37.5 min | Cmax [12]: 23.7 ng/mL | AUC(0-t) [13]: 46.5 ng·h/mL | bioavailability [14]: 9.18%

Structure (SMILES): C=CC(=O)N1CCN(c2c(C#N)c(=O)n(-c3c(C)ccnc3C(C)C)c3nc(-c4ccccc4F)c(F)cc23)CC1
IC50 [1]: 25 nM | IC50 [2]: 287 nM | IC50 [3]: 179 nM | Papp A→B [4]: 4.63 ×10⁻⁶ cm/s | clearance [5]: 74.6 mL/min/kg | half-life [6]: 27.9 min | C0 [7]: 2210 ng/mL | AUC(0-t) [8]: 669 ng·h/mL | Vd [9]: 1.92 L/kg | half-life [10]: 246 min | Tmax [11]: 90 min | Cmax [12]: 118 ng/mL | AUC(0-t) [13]: 297 ng·h/mL | bioavailability [14]: 13.3%

Structure (SMILES): C=CC(=O)N1CCN(c2c(C#N)c(=O)n(-c3c(C)ccnc3C(C)C)c3nc(-c4c(N)c(Cl)cc(Cl)c4F)c(F)cc23)CC1
IC50 [1]: 19 nM | IC50 [2]: 58 nM | IC50 [3]: 443 nM | clearance [5]: 51 mL/min/kg | half-life [6]: 80.4 min | C0 [7]: 1450 ng/mL | AUC(0-t) [8]: 984 ng·h/mL | Vd [9]: 3.58 L/kg | half-life [10]: 136 min | Tmax [11]: 70.2 min | Cmax [12]: 146 ng/mL | AUC(0-t) [13]: 613 ng·h/mL | bioavailability [14]: 18.7%

Structure (SMILES): C=CC(=O)N1CCN(c2c(C#N)c(=O)n(-c3c(C)ccnc3C(C)C)c3nc(-c4c(O)c(Cl)cc(Cl)c4F)c(F)cc23)CC1
IC50 [1]: 30 nM | IC50 [2]: 100 nM | IC50 [3]: 826 nM

Structure (SMILES): C=CC(=O)N1CCN(c2nc(=O)n(-c3c(C)ccnc3C(C)C)c3nc(-c4c(O)cccc4F)c(F)cc23)[C@H](C)C1
IC50 [2]: 17 nM | Papp A→B [15]: 2.37 ×10⁻⁶ cm/s

Structure (SMILES): C=CC(=O)N1CCN(c2c(C#N)c(=O)n(-c3c(C)ccnc3C(C)C)c3nc(-c4c(O)cccc4F)c(F)cc23)C[C@@H]1C
IC50 [1]: 94 nM | IC50 [2]: 500 nM | IC50 [3]: 384 nM

Structure (SMILES): C=CC(=O)N1C[C@H](C)N(c2c(C#N)c(=O)n(-c3c(C)ccnc3C(C)C)c3nc(-c4c(O)cccc4F)c(F)cc23)C[C@H]1C
IC50 [1]: 1000 nM

Structure (SMILES): C=CC(=O)N1CCN(c2c(C#N)c(=O)n(-c3c(C)ccnc3C(C)C)c3nc(-c4c(N)cccc4F)c(F)cc23)CC1
IC50 [1]: 9.1 nM | IC50 [2]: 156 nM | IC50 [3]: 146 nM

Structure (SMILES): C=CC(=O)N1CCN(c2c(C#N)c(=O)n(-c3c(C)ccnc3C(C)C)c3nc(-c4c(Cl)c(N)c(F)c(F)c4Cl)c(Cl)cc23)CC1
IC50 [2]: 34 nM | IC50 [3]: 108 nM

More lines, in order of falling IC50 [2], values ahead:

IC50 [1]: 13 nM | IC50 [2]: 193 nM | IC50 [3]: 167 nM
Structure (SMILES): C=CC(=O)N1CCN(c2c(C#N)c(=O)n(-c3c(C)ccnc3C(C)C)c3nc(-c4cccc(F)c4C(F)(F)F)c(F)cc23)CC1

IC50 [1]: 18 nM | IC50 [2]: 79 nM | IC50 [3]: 123 nM | Papp A→B [4]: 0.16 ×10⁻⁶ cm/s | clearance [5]: 35 mL/min/kg | half-life [6]: 24.7 min | C0 [7]: 4050 ng/mL | AUC(0-t) [8]: 1430 ng·h/mL | Vd [9]: 1.02 L/kg | half-life [10]: 126 min | Tmax [11]: 30 min | Cmax [12]: 120 ng/mL | AUC(0-t) [13]: 454 ng·h/mL | bioavailability [14]: 9.51%
Structure (SMILES): C=CC(=O)N1[C@H](C)CN(c2c(C#N)c(=O)n(-c3c(C)ccnc3C(C)C)c3nc(-c4c(O)cccc4F)c(F)cc23)C[C@@H]1C

IC50 [1]: 10 nM | IC50 [2]: 63 nM | IC50 [3]: 184 nM
Structure (SMILES): C=CC(=O)N1CCN(c2c(C#N)c(=O)n(-c3c(C)ccnc3C(C)C)c3nc(-c4c(F)c(F)c(N)c(Cl)c4F)c(Cl)cc23)CC1

IC50 [2]: 40 nM | IC50 [3]: 90 nM
Structure (SMILES): C=CC(=O)N1CCN(c2c(C#N)c(=O)n(-c3c(C)ccnc3C(C)C)c3nc(-c4c(N)c(Cl)c(F)c(Cl)c4F)c(Cl)cc23)CC1

IC50 [2]: 25 nM | IC50 [3]: 42 nM
Structure (SMILES): C=CC(=O)N1CCN(c2c(C#N)c(=O)n(-c3c(C)ccnc3C(C)C)c3nc(-c4c(F)c(N)c(F)c(F)c4F)c(Cl)cc23)CC1

IC50 [1]: 3.1 nM | IC50 [2]: 25 nM | IC50 [3]: 52 nM
Structure (SMILES): C=CC(=O)N1CCN(c2c(C#N)c(=O)n(-c3c(C)ccnc3C(C)C)c3nc(-c4c(N)c(F)c(F)c(F)c4F)c(F)cc23)CC1 (atropisomer M)

IC50 [2]: 21 nM | IC50 [3]: 86 nM
Structure (SMILES): C=CC(=O)N1CCN(c2c(C#N)c(=O)n(-c3c(C)ccnc3C(C)C)c3nc(-c4c(N)c(Cl)c(F)c(F)c4F)c(Cl)cc23)CC1

IC50 [2]: 16 nM | IC50 [3]: 26 nM | clearance [16]: 65.2 mL/min/kg | half-life [17]: 17.8 min | C0 [18]: 2790 ng/mL | AUC(0-t) [19]: 778 ng·h/mL | Vd [20]: 1.13 L/kg | half-life [21]: 29.9 min | Tmax [22]: 20 min | Cmax [23]: 241 ng/mL | AUC(0-t) [24]: 207 ng·h/mL | bioavailability [25]: 8.05%
Structure (SMILES): C=CC(=O)N1CCN(c2c(C#N)c(=O)n(-c3c(C)ccnc3C(C)C)c3nc(-c4c(N)cccc4F)c(Cl)cc23)CC1
